From patent US7919101B2 (priority 2008, dated 2011)
Read-outs that look alike come from different tables or passages of the source. Residues, ends and D or L forms follow the SMILES beside them.

What was measured:
[1] = tested on: HIV-1 NL4-3(36G)V38A
Method: (§1) 2. Inhibition of HIV infection as measured by luciferase assay. The inhibitory activity of fusion/entry inhibitors on HIV infection in TZM-bl cells was determined by using a luciferase assay (Wei X et al. Antimicrob. Agents Chemother. 46:1896-1905, 2002). Briefly, 50 μl of a compound at graded concentration in triplicate were incubated with an equal volume of an HIV-1 isolate at 0.01 multiplicity of infection (MOI) at 37° C. for 30 min, followed by addition of the mixture to 100 μl TZM-bl cells (1×10^5/ml) that were pre-cultured in a 96-well plate at 37° C. overnight. After further culture at 37° C. for 3 days, the cells were harvested and lyzed with 50 μl lysing reagent. The luciferase activity was analyzed using a luciferase kit (Promega Corp.) and a luminometer (Model: Ultra […], Tecan) according to the manufacture's instruction. The percent inhibition of cell fusion by a compound as well as EC50 and EC90 values were calculated using the software CalcuSyn.
(§2) 3. Inhibition of HIV replication as measured by p24 antigen production. The inhibitory activity of fusion/entry inhibitors on HIV-1 infection as measured by p24 antigen production was determined as previously described (Zhao Q et al. AIDS Res Hum Retroviruses 18:989-997, 2002). In brief, 1×10^4 MT-2 cells were infected with an HIV-1 strain (100 TCID50) in 200 μl RPMI 1640 medium containing 10% FBS in the presence or absence of testing compounds at graded concentrations overnight. Then the culture supernatants were removed and fresh media containing no testing compounds were added. On the fourth day post-infection, 100 μl of culture supernatants were collected from each well, mixed with equal volumes of 5% Triton X-100 and assayed for p24 antigen, which was quantitated by ELISA. Briefly, wells of polystyrene plates were coated with HIV immunoglobulin (HIVIG, prepared from plasma of HIV-seropositive donors with high neutralizing titers against HIV-1IIIB), in 0.085 M carbonate-bicarbonate buffer (pH 9.6) at 4° C. overnight, followed by washes with washing buffer (0.01 M PBS containing 0.05% Tween-20) and blocking with PBS containing 1% dry fat-free milk. Virus lysates were added to the wells and incubated at 37° C. for 1 hr. […] Reactions were terminated by addition of 1N H2SO4. Absorbance at 450 nm was recorded in an ELISA reader (Ultra 384, TECAN). Recombinant protein p24, purchased from US Biological, was included for establishing standard dose response curves. Each sample was tested in triplicate. The percentage of inhibition of p24 production was calculated as previously described (Neurath A R et al. BMC Infect Dis 2:6, 2002).
(§3) 4. Synergy analysis. […] In all analyses, HIV fusion/entry inhibitors were assumed to act noncompetitively, which led to a more conservative estimate of synergy. CI values<1 and >1 indicate synergy and antagonism, respectively. Dose reductions were calculated as the compound concentrations required for inhibition of HIV-1 replication when the compound was used alone and in combination. The statistic analysis was performed by the One-Way Analysis of Variance (One-Way ANOVA) method using Origin 6.1 software.

[2] = tested on: HIV-1 NL4-3(36G)V38A/N42D
Method: as §1, §2, §3

[3] = tested on: HIV-1 BaL (subtype B, R5); conditions: for Dose reduction: Bal
Method: as §1, §2, §3

[4] = tested on: HIV-1 NL4-3(36G)V38E/N42S
Method: as §1, §2, §3

[5] = tested on: HIV-1 IIIB (subtype B, X4); conditions: for Dose reduction: IIIB
Method: as §1, §2, §3

[6] = tested on: HIV-1 RU570 (clade G, R5); experiment: Inhibition of infection by primary HIV-1 isolate RU570; type: cell-based; conditions: for Dose reduction: RU570
Method: (§4) Inhibitory activity of fusion/entry inhibitors on infection by a primary HIV-1 isolate was determined as previously described (Jiang S et al. Antimicrob Agents Chemother 48:4349-4359, 2004). Peripheral blood mononuclear cells (PBMCs) were isolated from the blood of healthy donors by standard density gradient centrifugation using Histopaque-1077 (Sigma). The cells were plated in 75 cm^2 plastic flasks and incubated at 37° C. for 2 hrs. The nonadherent cells were collected and resuspended at 5×10^6 in 10 ml RPMI-1640 medium containing 10% FBS, 5 μg/ml PHA (phytohemagglutinin) and 100 U/ml IL-2 (Sigma), followed by incubation at 37° C. for 3 days. The PHA-stimulated cells were infected with a primary HIV-1 isolates at 0.01 MOI in the absence or presence of a compound at graded concentrations. Culture media were changed every 3 days. The supernatants were collected 7 days post-infection and tested for p24 antigen by ELISA as described above. The percent inhibition of p24 production and EC50 values were calculated as described above.
as §3

[7] = tested on: HIV-1 NL4-3D36G; experiment: Inhibition of infection by T-20-sensitive strain NL4-3D36G; type: cell-based; conditions: for Dose reduction: NL4-3D36G
Method: as §1, §2, §3

[8] = in vivo; cited from earlier work
[9] = tested on: HIV-1 93IN101 (subtype C, R5); conditions: for Dose reduction: 93IN101
Method: as §4, §3

[10] = read-out: EC50 alone, peptide alone

For CC[C@H](C)[C@H](NC(=O)[C@H](C)NC(=O)[C@H](CCCNC(=N)N)NC(=O)[C@H](CC(=O)O)NC(=O)[C@H](Cc1c[nH]c2ccccc12)NC(=O)[C@H](C)NC(=O)[C@H](CCC(=O)O)NC(=O)[C@H](Cc1c[nH]c2ccccc12)NC(=O)[C@@H](NC(=O)[C@@H](NC(C)=O)[C@@H](C)O)[C@@H](C)O)C(=O)N[C@@H](C)C(=O)N[C@@H](CCC(=O)O)C(=O)N[C@@H](Cc1ccc(O)cc1)C(=O)N[C@@H](C)C(=O)N[C@@H](C)C(=O)N[C@@H](CCCNC(=N)N)C(=O)N[C@H](C(=O)N[C@@H](CCC(=O)O)C(=O)N[C@@H](C)C(=O)N[C@@H](CC(C)C)C(=O)N[C@@H](CC(C)C)C(=O)N[C@@H](CCCNC(=N)N)C(=O)N[C@@H](C)C(=O)N[C@@H](CC(C)C)C(=O)N[C@@H](CCC(N)=O)C(=O)N[C@@H](CCC(=O)O)C(=O)N[C@@H](CCC(N)=O)C(=O)N[C@@H](CCC(N)=O)C(=O)N[C@@H](CCC(=O)O)C(=O)N[C@@H](CCCCN)C(=O)N[C@@H](CC(N)=O)C(=O)N[C@@H](CCC(=O)O)C(=O)N[C@@H](C)C(=O)N[C@@H](C)C(=O)N[C@@H](CC(C)C)C(=O)N[C@@H](CCCNC(=N)N)C(=O)N[C@@H](CCC(=O)O)C(=O)N[C@@H](CC(C)C)C(N)=O)[C@@H](C)CC [T-1144] (Ac-TTWEAWDRAIAEYAARIEALLRALQEQQEKNEAALREL-NH2; N-terminus and C-terminus assumed), the Dose reduction ([1]; T-20+T-1249+T-1144 80:1:1) was 37.60 fold, the Dose reduction ([1]; T-20 combined with T-1144) was 16.35 fold and the EC50 [1, 10] was 3.76 nM. It also gave a Dose reduction ([2]; T-20+T-1249+T-1144 80:1:1) of 9.33 fold, a Dose reduction ([2]; T-20 combined with T-1144) of 1.82 fold and an EC50 [2, 10] of 4.57 nM. The Dose reduction ([3]; T-20+T-1249+T-1144 2:1:1) was 209.00 fold, the Dose reduction ([3]; T-20 combined with T-1144) was 19.90 fold and the EC50 ([3]; read-out: EC50 alone, Bal (B, R5), peptide alone) was 4.18 nM. The Dose reduction ([4]; T-20+T-1249+T-1144 3000:200:1) was 37.21 fold, the Dose reduction ([4]; T-20 combined with T-1144) was 4.17 fold and the EC50 [4, 10] was 5.21 nM. The Dose reduction ([5]; T-20+T-1249+T-1144 16:4:1) was 99.00 fold, the Dose reduction ([5]; T-20 combined with T-1144) was 7.98 fold and the EC50 ([5]; read-out: EC50 alone, IIIB (B, X4), peptide alone) was 4.95 nM. For the same compound, the EC50 ([6]; RU570 (G, R5) primary isolate, peptide alone, read-out: EC50 alone) was 24.2 nM, the Dose reduction ([6]; T-20+T-1249+T-1144 4:1:1) was 21.23 fold and the Dose reduction ([6]; T-20 combined with T-1144) was 18.62 fold. For the same compound, the EC50 ([7]; NL4-3D36G (T-20-sensitive), peptide alone) was 5.85 nM, the Dose reduction ([7]; T-20+T-1249+T-1144 7:5:1) was 15.81 fold and the Dose reduction ([7]; T-20 combined with T-1144) was 13.00 fold. For the same compound, the pharmacokinetic properties improved [8] was “up to 100 fold”, the Dose reduction ([9]; T-20+T-1249+T-1144 4:1:1) was 24.17 fold and the Dose reduction ([9]; T-20 combined with T-1144) was 14.46 fold. The EC50 ([9]; read-out: EC50 alone, 93IN101 (C, R5) primary isolate, peptide alone) was 15.5 nM.
